The SangsterLogP compilation

Assay: method code SF-AS, from DOI: 10.1016/0378-5173(79)90126-1
Conditions: pH 3.5

Compound | logD
CCC(C(=O)NC(N)=O)(C(=O)OC)c1ccccc1 (stereo not given) | 1.58
CCC(CC)(C(=O)NC(N)=O)C(=O)OCc1ccccc1 | 2.74
CCNC(=O)NC(=O)C(C)(C(=O)OC)C1=CCCCC1 (stereo not given) | 2.25
CNC(=O)NC(=O)C(C)(C(=O)OC)C1C=CCCC1 (stereo not given) | 1.75
C=CCC(CC=C)(C(=O)NC(N)=O)C(=O)OC | 1.37
CNC(=O)NC(=O)C(C)(C(=O)OCOC)C1=CCCCC1 (stereo not given) | 1.8
CCC(CC)(C(=O)NC(N)=O)C(=O)OCC(=O)OC | 0.99

Results, then the molecule that gave them:

logD | Compound
1.45 | CCOC(=O)C(CC)(CC)C(=O)NC(N)=O
1.99 | CCC(CC)(C(=O)NC(N)=O)C(=O)OC(C)C
0.95 | CCC(CC)(C(=O)NC(N)=O)C(=O)OC
